Some test systems named below: HCT-15 colon; MOLT-4 leukemia; SK-MEL-5 melanoma; LOX IMVI melanoma; OVCAR-3 ovarian; SF-295 CNS; HL-60(TB) leukemia; SK-MEL-28 melanoma; U251 CNS; OVCAR-5 ovarian.
What all share (experiment): growth of human tumour cells (NCI), 48 h

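Interpolation was linear, between the two tested concentrations surrounding the appropriate level; five concentrations were tested over 48 hours in 96-well plates. GI50 = concentration required for 50% inhibition of growth. TGI marks complete inhibition of growth.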

As for `COc1cc(Cl)c(C)cc1NC(=O)c1cc2ccccc2cc1O`, the GI50 in the experiment on HCT-15 colon was 2.5 µM; with MOLT-4 leukemia it was 2.85 µM; with SK-MEL-5 melanoma it was 1.72 µM; in the experiment on LOX IMVI melanoma, 2.49 µM; in the experiment with OVCAR-3 ovarian, 1.86 µM; in the experiment with SF-295 CNS, 2.43 µM. Also, the GI50 with HL-60(TB) leukemia is 1.89 µM; in the experiment with SK-MEL-28 melanoma it was 3.77 µM; in the experiment with U251 CNS, 2.2 µM; in the experiment with OVCAR-5 ovarian, 3.47 µM. For the same compound, the TGI in the experiment with HCT-15 colon amounted to 13.4 µM; in the experiment with MOLT-4 leukemia, 14 µM; in the experiment on SK-MEL-5 melanoma, 3.93 µM; in the experiment on LOX IMVI melanoma, 10.8 µM; in the experiment with OVCAR-3 ovarian, 7.09 µM; with SF-295 CNS, 7.91 µM. Further, the TGI came to 6.92 µM with HL-60(TB) leukemia, 22.8 µM with SK-MEL-28 melanoma, 10.5 µM in the experiment with U251 CNS and 14.1 µM in the experiment on OVCAR-5 ovarian.
Consider `Cc1cnc2n(c1=O)Cc1ccccc1CO2`, for which the GI50 was 17.1 µM in the experiment on HCT-15 colon; 18.3 µM in the experiment with MOLT-4 leukemia; 15.4 µM in the experiment on SK-MEL-5 melanoma; 14.6 µM in the experiment on LOX IMVI melanoma; 16.6 µM in the experiment with OVCAR-3 ovarian; 33.2 µM in the experiment on SF-295 CNS. For the same compound, the GI50 with HL-60(TB) leukemia was 15.5 µM; in the experiment with SK-MEL-28 melanoma, 20.9 µM; in the experiment on U251 CNS it was 15.7 µM; with OVCAR-5 ovarian it was 27.4 µM. In addition, the TGI was 33.8 µM in the experiment on HCT-15 colon; 39.3 µM in the experiment with MOLT-4 leukemia; 29.5 µM in the experiment with SK-MEL-5 melanoma; 31.9 µM in the experiment with LOX IMVI melanoma; 34.3 µM in the experiment with OVCAR-3 ovarian; greater than 100 µM with SF-295 CNS. Moreover, the TGI was 35.1 µM in the experiment on HL-60(TB) leukemia, 45.1 µM with SK-MEL-28 melanoma, 29.9 µM with U251 CNS and greater than 92.4 µM in the experiment with OVCAR-5 ovarian.
In the case of `C=C1[C@@H]2CCC(C)(C)[C@H]1CCC(=O)[C@@H]2C(=O)OC`, the TGI with HCT-15 colon, with MOLT-4 leukemia, in the experiment on SK-MEL-5 melanoma, in the experiment with LOX IMVI melanoma, in the experiment with OVCAR-3 ovarian and in the experiment with SF-295 CNS was greater than 100 µM in each case. Moreover, the TGI in the experiment on HL-60(TB) leukemia, in the experiment with SK-MEL-28 melanoma and with U251 CNS was greater than 100 µM in each case.
As to `COc1cc(-c2cc(C(=O)N3CCN(C(=O)c4ccccc4NCc4cccs4)CC3)nc3cc(-c4ccccc4)nn23)cc(OC)c1OC`, the GI50 is 4.43 µM in the experiment on HCT-15 colon; 43.7 µM in the experiment on MOLT-4 leukemia; 2.85 µM with SK-MEL-5 melanoma; 6.04 µM in the experiment on LOX IMVI melanoma; 3.03 µM in the experiment on OVCAR-3 ovarian; 3.78 µM in the experiment on SF-295 CNS. For the same compound, the GI50 in the experiment on HL-60(TB) leukemia is 6.15 µM; in the experiment on SK-MEL-28 melanoma, 9.62 µM; with U251 CNS, 5.76 µM; in the experiment on OVCAR-5 ovarian it was 15.1 µM. The TGI is greater than 100 µM in the experiment on HCT-15 colon; greater than 100 µM in the experiment on MOLT-4 leukemia; 11.5 µM in the experiment on SK-MEL-5 melanoma; greater than 100 µM in the experiment with LOX IMVI melanoma; 11.3 µM in the experiment on OVCAR-3 ovarian; greater than 100 µM in the experiment on SF-295 CNS. For the same compound, the TGI with HL-60(TB) leukemia was 75.4 µM; in the experiment with SK-MEL-28 melanoma it was greater than 100 µM; in the experiment with U251 CNS, greater than 100 µM; with OVCAR-5 ovarian, greater than 100 µM.
Turning to `O=C(/C=C/c1ccco1)c1cccc(Nc2nc(Nc3ccccc3)nc(Nc3ccccc3)n2)c1`, the GI50 in the experiment on HCT-15 colon is 5.12 µM; in the experiment on MOLT-4 leukemia, 4.34 µM; in the experiment on SK-MEL-5 melanoma it was 22 µM; in the experiment with LOX IMVI melanoma, 17.9 µM; in the experiment with OVCAR-3 ovarian, 2.83 µM; in the experiment on SF-295 CNS, 2.94 µM. Moreover, the GI50 with HL-60(TB) leukemia was greater than 29.6 µM; in the experiment on SK-MEL-28 melanoma it was 23.7 µM; with U251 CNS, 16 µM; in the experiment with OVCAR-5 ovarian, greater than 100 µM. In addition, the TGI with HCT-15 colon is greater than 100 µM; in the experiment with MOLT-4 leukemia, greater than 31.8 µM; with SK-MEL-5 melanoma it was greater than 100 µM; with LOX IMVI melanoma, greater than 100 µM; with OVCAR-3 ovarian, 27.1 µM; in the experiment with SF-295 CNS, greater than 25.3 µM. Moreover, the TGI in the experiment on HL-60(TB) leukemia is greater than 54.3 µM; in the experiment with SK-MEL-28 melanoma, greater than 100 µM; with U251 CNS it was greater than 100 µM; with OVCAR-5 ovarian, greater than 100 µM.
As for `CC12CCC(C)(c3cc(O)c(O)cc31)c1cc(O)c(O)cc12`, the TGI turned out to be 29.3 µM in the experiment on HCT-15 colon; 42.5 µM in the experiment on MOLT-4 leukemia; 36.4 µM in the experiment on SK-MEL-5 melanoma; 35.4 µM with LOX IMVI melanoma; 32.6 µM in the experiment on OVCAR-3 ovarian; 46.8 µM in the experiment on SF-295 CNS. The TGI in the experiment on HL-60(TB) leukemia is 13.1 µM; with SK-MEL-28 melanoma, 34.1 µM; with OVCAR-5 ovarian it was 48.1 µM.
In the case of `CCCCCCCCCCCCCCCc1nc(SCC(=O)O)n[nH]1`, the TGI with HCT-15 colon, with MOLT-4 leukemia, in the experiment with SK-MEL-5 melanoma, with LOX IMVI melanoma, in the experiment on OVCAR-3 ovarian and in the experiment on SF-295 CNS was greater than 100 µM each time. The TGI with HL-60(TB) leukemia was greater than 100 µM; with SK-MEL-28 melanoma, greater than 100 µM; with U251 CNS, 81.2 µM.
For the compound `C[C@]12CC[C@H](O)CC1CCC[C@@H]2O` (some centres undefined), the TGI in the experiment on HCT-15 colon, in the experiment with MOLT-4 leukemia, with SK-MEL-5 melanoma, in the experiment with LOX IMVI melanoma, in the experiment with OVCAR-3 ovarian and with SF-295 CNS was greater than 100 µM throughout. For the same compound, the TGI with HL-60(TB) leukemia, in the experiment with SK-MEL-28 melanoma and in the experiment on U251 CNS was greater than 100 µM throughout.
As to `CC(=O)O[C@H]1CC[C@@]2(C)[C@@H](CC[C@@H]3[C@@H]2CC(=O)[C@@]2(C)[C@H]3C[C@@H]3CC(C)=CC(=O)[C@@H]32)C1`, the TGI in the experiment on HCT-15 colon is greater than 100 µM; with SK-MEL-5 melanoma, greater than 100 µM; with LOX IMVI melanoma it was greater than 100 µM; in the experiment on OVCAR-3 ovarian, greater than 100 µM; with SF-295 CNS, greater than 100 µM; with HL-60(TB) leukemia it was 27.8 µM. For the same compound, the TGI in the experiment on SK-MEL-28 melanoma, in the experiment on U251 CNS and with OVCAR-5 ovarian was greater than 100 µM each time.
For the compound `CCOC(=O)/C(C#N)=C/c1[nH]c(C)c(C)c1C`, the TGI in the experiment with HCT-15 colon, with MOLT-4 leukemia, in the experiment on SK-MEL-5 melanoma, with LOX IMVI melanoma, in the experiment with OVCAR-3 ovarian and with SF-295 CNS was greater than 100 µM throughout. Also, the TGI with HL-60(TB) leukemia, with U251 CNS and in the experiment on OVCAR-5 ovarian was greater than 100 µM throughout.
